Molecular target: T1, Peroxisome proliferator-activated receptor delta (Homo sapiens, UniProt Q03181)
T1 sequence (Q03181 whole entry): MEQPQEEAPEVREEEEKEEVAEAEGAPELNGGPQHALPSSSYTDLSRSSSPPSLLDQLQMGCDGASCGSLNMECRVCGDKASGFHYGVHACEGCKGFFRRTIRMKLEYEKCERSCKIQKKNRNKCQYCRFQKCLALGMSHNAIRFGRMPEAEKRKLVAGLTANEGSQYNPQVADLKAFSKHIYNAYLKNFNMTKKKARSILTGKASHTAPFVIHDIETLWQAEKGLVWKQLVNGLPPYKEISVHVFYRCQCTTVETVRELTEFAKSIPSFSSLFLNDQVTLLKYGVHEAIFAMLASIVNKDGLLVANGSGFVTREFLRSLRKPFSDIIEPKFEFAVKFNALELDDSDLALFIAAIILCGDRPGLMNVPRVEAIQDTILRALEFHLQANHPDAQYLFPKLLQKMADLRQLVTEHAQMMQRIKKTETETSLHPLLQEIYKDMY
Assay: Agonist activity at human Gal4 fused PPARdelta LBD expressed in COS-7 cells incubated for 24 hrs by firefly luciferase reporter gene assay
Format: cell-based
Conditions: not given

Row | Compound | EC50
1 | Cc1cc(COc2ccc3c(c2)O/C(=C\c2ccc(F)cc2)C3=O)cc(C)c1OC(C)(C)C(=O)O | > 10 µM

System: not listed separately
Assay: Hepatotoxicity in STZ-induced Sprague-Dawley rat diabetic kidney disease model assessed as serum AST level at 25 to 50 mg/kg, po administered twice a day for 6 weeks
Format: toxicity, organism-based
Conditions: in vivo, 1008 h, dose 25-50 mg/kg

Row | Compound | Activity
2 | Cc1cc(COc2ccc3c(c2)O/C(=C\c2ccc(C(F)(F)F)cc2)C3=O)cc(C)c1OC(C)(C)C(=O)O | Non-Toxic

System: not listed separately
Assay: Cytotoxicity against human GMCs assessed as reduction in cell viability at 1 to 30 uM after 48 hrs by CCK-8 assay
Format: tissue-based
Conditions: glomerular mesangial cell, dose 1-30 µM

Row | Compound | Activity
3 | Cc1cc(COc2ccc3c(c2)O/C(=C\c2ccc(C(F)(F)F)cc2)C3=O)cc(C)c1OC(C)(C)C(=O)O | Non-Toxic

System: THP-1
Assay: Cytotoxicity against human THP-1 assessed as reduction in cell viability at 1 to 30 uM after 48 hrs by CCK-8 assay
Format: cell-based
Conditions: thp-1, 48 h, dose 1-30 µM

Row | Compound | Activity
4 | Cc1cc(COc2ccc3c(c2)O/C(=C\c2ccc(C(F)(F)F)cc2)C3=O)cc(C)c1OC(C)(C)C(=O)O | Non-Toxic

Molecular target: T2, Peroxisome proliferator-activated receptor alpha (Homo sapiens, UniProt Q07869)
T2 sequence (Q07869 whole entry): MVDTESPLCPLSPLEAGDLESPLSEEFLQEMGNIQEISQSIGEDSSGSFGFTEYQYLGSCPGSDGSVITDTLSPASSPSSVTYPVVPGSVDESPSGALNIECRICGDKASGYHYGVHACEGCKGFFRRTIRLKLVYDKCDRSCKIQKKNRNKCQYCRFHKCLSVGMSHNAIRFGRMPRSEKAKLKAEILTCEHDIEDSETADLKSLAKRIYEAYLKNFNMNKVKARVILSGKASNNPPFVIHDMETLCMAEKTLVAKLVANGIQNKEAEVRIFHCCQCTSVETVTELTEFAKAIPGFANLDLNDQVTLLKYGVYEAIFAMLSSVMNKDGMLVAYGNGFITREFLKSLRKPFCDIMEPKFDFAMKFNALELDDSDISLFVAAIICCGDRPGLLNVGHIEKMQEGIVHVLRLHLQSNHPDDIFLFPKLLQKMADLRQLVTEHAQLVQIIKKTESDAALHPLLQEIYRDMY
Assay: Agonist activity at human Gal4 fused PPARalpha LBD expressed in COS-7 cells incubated for 24 hrs by firefly luciferase reporter gene assay
Format: cell-based
Conditions: not given

Row | Compound | EC50
5 | Cc1cc(COc2ccc3c(c2)O/C(=C\c2ccc(F)cc2)C3=O)cc(C)c1OC(C)(C)C(=O)O | > 10 µM
6 | CCOc1ccc(/C=C2\Oc3cc(OCc4cc(C)c(OC(C)(C)C(=O)O)c(C)c4)ccc3C2=O)cc1 | > 10 µM
7 | COc1ccc(/C=C2\Oc3cc(OCc4cc(C)c(OC(C)(C)C(=O)O)c(C)c4)ccc3C2=O)cc1 | > 10 µM
8 | CSc1ccc(C(=O)/C=C/c2cc(C)c(OC(C)(C)C(=O)O)c(C)c2)cc1 [ELAFIBRANOR] | 0.76 µM

System: not listed separately
Assay: Hepatotoxicity in STZ-induced Sprague-Dawley rat diabetic kidney disease model assessed as serum ALT level at 25 to 50 mg/kg, po administered twice a day for 6 weeks
Format: toxicity, organism-based
Conditions: in vivo, 1008 h, dose 25-50 mg/kg

Row | Compound | Activity
9 | Cc1cc(COc2ccc3c(c2)O/C(=C\c2ccc(C(F)(F)F)cc2)C3=O)cc(C)c1OC(C)(C)C(=O)O | Non-Toxic

Molecular target: T3, Peroxisome proliferator-activated receptor gamma (Homo sapiens, UniProt P37231)
T3 sequence (P37231 whole entry): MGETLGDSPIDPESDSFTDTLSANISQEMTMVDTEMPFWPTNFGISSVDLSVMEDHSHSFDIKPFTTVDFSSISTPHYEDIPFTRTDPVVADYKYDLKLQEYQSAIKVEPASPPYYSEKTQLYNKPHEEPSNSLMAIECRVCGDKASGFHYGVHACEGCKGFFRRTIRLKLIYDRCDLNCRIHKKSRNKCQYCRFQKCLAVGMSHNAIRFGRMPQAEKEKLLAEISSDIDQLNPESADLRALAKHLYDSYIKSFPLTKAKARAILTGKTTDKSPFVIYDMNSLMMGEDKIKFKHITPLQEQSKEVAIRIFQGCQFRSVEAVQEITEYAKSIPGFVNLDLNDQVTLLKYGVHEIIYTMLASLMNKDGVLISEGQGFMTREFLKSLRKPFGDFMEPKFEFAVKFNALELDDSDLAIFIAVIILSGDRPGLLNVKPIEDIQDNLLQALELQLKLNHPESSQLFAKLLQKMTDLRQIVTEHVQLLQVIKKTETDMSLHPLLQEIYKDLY
Assay: Agonist activity at human Gal4 fused PPARgamma LBD expressed in COS-7 cells incubated for 24 hrs by firefly luciferase reporter gene assay
Format: cell-based
Conditions: not given

Row | Compound | EC50
10 | Cc1cc(COc2ccc3c(c2)O/C(=C\c2ccc(Br)cc2)C3=O)cc(C)c1OC(C)(C)C(=O)O | > 10 µM
11 | Cc1cc(COc2ccc3c(c2)O/C(=C\c2ccc(F)cc2)C3=O)cc(C)c1OC(C)(C)C(=O)O | > 10 µM
12 | Cc1cc(COc2ccc3c(c2)O/C(=C\c2ccc(C(C)C)cc2)C3=O)cc(C)c1OC(C)(C)C(=O)O | > 10 µM
13 | Cc1cc(COc2ccc3c(c2)O/C(=C\c2ccccc2C(F)(F)F)C3=O)cc(C)c1OC(C)(C)C(=O)O | > 10 µM
14 | CCOc1ccc(/C=C2\Oc3cc(OCc4cc(C)c(OC(C)(C)C(=O)O)c(C)c4)ccc3C2=O)cc1 | > 10 µM
15 | Cc1cc(COc2ccc3c(c2)O/C(=C\c2ccccc2)C3=O)cc(C)c1OC(C)(C)C(=O)O | > 10 µM
16 | Cc1ccc(/C=C2\Oc3cc(OCc4cc(C)c(OC(C)(C)C(=O)O)c(C)c4)ccc3C2=O)cc1 | > 10 µM
17 | COc1ccc(/C=C2\Oc3cc(OCc4cc(C)c(OC(C)(C)C(=O)O)c(C)c4)ccc3C2=O)cc1 | > 10 µM
18 | CSc1ccc(C(=O)/C=C/c2cc(C)c(OC(C)(C)C(=O)O)c(C)c2)cc1 [ELAFIBRANOR] | 2.79 µM
19 | Cc1cc(COc2ccc3c(c2)O/C(=C\c2ccc4ccccc4c2)C3=O)cc(C)c1OC(C)(C)C(=O)O | > 10 µM
20 | Cc1cc(COc2ccc3c(c2)O/C(=C\c2ccc(C#N)cc2)C3=O)cc(C)c1OC(C)(C)C(=O)O | > 10 µM
21 | Cc1cc(COc2ccc3c(c2)O/C(=C\c2ccc(Cl)cc2)C3=O)cc(C)c1OC(C)(C)C(=O)O | > 10 µM

— ChEMBL document CHEMBL4811243, “Design, synthesis, and biological evaluation of a novel dual peroxisome proliferator-activated receptor alpha/delta agonist for the treatment of diabetic kidney disease through anti-inflammatory mechanisms” (Eur J Med Chem, 2021)
